Values quoted from earlier work as cited in patent US6569457B2, “Enteric coated pharmaceutical tablet and method of manufacturing” (priority 1998, dated 2003).

Compound: O=c1[nH]cnc2c1ncn2C1CCC(CO)O1 (stereo not shown) [ddl, 2′,3′-dideoxyinosine]
- degradation at acidic pH: degrades rapidly
